In PubChem BioAssay (NCI):
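Each compound was tested at five concentrations against cells in 96-well plates for 48 hours. TGI: total growth inhibition.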

How the values were obtained:
Test in all cases: inhibition of tumour cell growth, NCI panel, 48 h
[1] = tested on: IGROV1 ovarian
[2] = tested on: K-562 leukemia
[3] = tested on: OVCAR-3 ovarian
[4] = tested on: OVCAR-5 ovarian
[5] = tested on: SK-MEL-28 melanoma
[6] = tested on: T-47D breast
[7] = tested on: UACC-257 melanoma
[8] = tested on: UACC-62 melanoma

Molecule `CC(C)(Oc1ccc(Cl)cc1)C(=O)N(C(=O)N1CCC(c2ccccc2)CC1)c1ccccc1` has a TGI [1] greater than 100 µM, a TGI [2] greater than 100 µM and a TGI [3] greater than 100 µM. It also gave a TGI [4] greater than 100 µM, a TGI [5] greater than 100 µM and a TGI [6] greater than 30.3 µM. For the same molecule, the TGI [7] was greater than 100 µM and the TGI [8] was greater than 100 µM.

`CC1CC/C(=C\c2ccc(Cl)cc2)C2OC(N)=C(C#N)C(c3ccc(Cl)cc3)=C12` (centres undefined) gave a TGI [1] of 26.5 µM, a TGI [2] of 51.8 µM and a TGI [3] of 27.5 µM. The TGI [4] was 37.5 µM, the TGI [5] was 37.5 µM and the TGI [6] was 17.8 µM. It also gave a TGI [7] of 53.4 µM and a TGI [8] of 31 µM.

Molecule `O=C(Cn1c(C(=O)/C=C/c2cccs2)nc2ccccc21)c1ccc(Cl)cc1` has a TGI [1] of 77.7 µM, a TGI [2] of 45.7 µM and a TGI [3] of 57.3 µM. It also gave a TGI [4] greater than 100 µM, a TGI [5] greater than 100 µM and a TGI [6] greater than 100 µM. For the same molecule, the TGI [7] was 58.1 µM and the TGI [8] was greater than 100 µM.

Work on `COc1ccc(C(SC2C(O)C(CO)OC2n2ccc(N)nc2=O)(c2ccccc2)c2ccc(OC)cc2)cc1` (centres undefined) yielded a TGI [1] of 67 µM, a TGI [2] of 88.3 µM and a TGI [3] of 48.5 µM. It also gave a TGI [4] of 50.8 µM, a TGI [5] of 75.6 µM and a TGI [6] of 47.4 µM. It also gave a TGI [7] of 41.7 µM and a TGI [8] of 33 µM.

Work on `CC(C)C(OC(=O)c1ccc(NCc2cc(O)ccc2O)cc1)C(C)C` yielded a TGI [1] of 2.35 µM, a TGI [2] of 4.12 µM and a TGI [3] of 4.37 µM. The TGI [4] was 6.16 µM, the TGI [5] was 3.23 µM and the TGI [6] was 3.4 µM. It also gave a TGI [7] of 3.83 µM and a TGI [8] of 3.27 µM.

`CCCC(=O)NC(Nc1ccc(S(=O)(=O)Nc2nc(C)cc(C)n2)cc1)(C(F)(F)F)C(F)(F)F` gave a TGI [1] greater than 100 µM, a TGI [2] greater than 100 µM and a TGI [3] greater than 100 µM. For the same molecule, the TGI [4] was greater than 100 µM, the TGI [5] was greater than 100 µM and the TGI [6] was greater than 100 µM. It also gave a TGI [7] greater than 100 µM and a TGI [8] greater than 100 µM.

Molecule `CCOc1cc(C2CC(c3ccc(NS(=O)(=O)c4cc([N+](=O)[O-])ccc4C)cc3)=NN2c2ccc([N+](=O)[O-])cc2[N+](=O)[O-])ccc1O` (centres undefined) has a TGI [1] of 46.2 µM, a TGI [2] greater than 100 µM and a TGI [3] of 29 µM. It also gave a TGI [4] of 60.3 µM, a TGI [5] of 89.4 µM and a TGI [6] of 60.2 µM. The TGI [7] was 59.5 µM.

For `O=c1cc(N2CCN(c3cc(=O)n4ccccc4n3)CC2)oc2ccccc12`, the TGI [1] was greater than 100 µM, the TGI [2] was greater than 100 µM and the TGI [3] was greater than 100 µM. For the same molecule, the TGI [4] was greater than 100 µM, the TGI [5] was greater than 100 µM and the TGI [6] was greater than 100 µM. For the same molecule, the TGI [7] was greater than 71.8 µM and the TGI [8] was greater than 100 µM.

In the case of `CCOC(=O)c1nc2ccc(C(F)(F)F)cc2nc1Oc1cc(OC)cc(OC)c1`, the TGI [1] is reported as greater than 100 µM, the TGI [2] is reported as greater than 100 µM and the TGI [3] is reported as greater than 100 µM. It also gave a TGI [4] greater than 100 µM, a TGI [5] greater than 100 µM and a TGI [6] greater than 100 µM. For the same molecule, the TGI [7] was greater than 100 µM and the TGI [8] was greater than 100 µM.

In the case of `CC1(C)CC(=O)c2c(nc3ccc4ccccc4c3c2-c2ccc(NC(=O)CCCCCCCCC(=O)Nc3ccc(-c4c5c(nc6ccc7ccccc7c46)CC(C)(C)CC5=O)cc3)cc2)C1`, the TGI [1] is reported as greater than 100 µM, the TGI [2] is reported as greater than 100 µM and the TGI [3] is reported as greater than 100 µM. For the same molecule, the TGI [4] was greater than 100 µM, the TGI [5] was greater than 100 µM and the TGI [6] was greater than 100 µM. It also gave a TGI [7] greater than 100 µM and a TGI [8] greater than 100 µM.

In the case of `CCOC(=O)c1cc2c3c(c(C(C)=O)c(O)c2[nH]1)N(CC(C)CC)CC3` (centres undefined), the TGI [1] is reported as greater than 100 µM, the TGI [2] is reported as greater than 100 µM and the TGI [5] is reported as greater than 100 µM. It also gave a TGI [6] of 92.6 µM, a TGI [7] greater than 100 µM and a TGI [8] greater than 100 µM.

`COc1cc(C2c3cc4c(cc3OC(NNC(N)=O)C2C)OCO4)cc(OC)c1O` (centres undefined) was tested, and the TGI [1] was greater than 100 µM, the TGI [2] was greater than 100 µM and the TGI [3] was 10.1 µM. For the same molecule, the TGI [4] was greater than 100 µM, the TGI [5] was greater than 100 µM and the TGI [6] was greater than 100 µM. It also gave a TGI [7] greater than 100 µM and a TGI [8] greater than 100 µM.

Work on `COc1ccccc1NC(=O)CC(=O)N1N=C(C)C(N=Nc2ccc(C(=O)O)cc2)C1=O` (centres undefined) yielded a TGI [1] greater than 100 µM, a TGI [2] greater than 100 µM and a TGI [3] greater than 100 µM. It also gave a TGI [4] greater than 100 µM, a TGI [5] greater than 100 µM and a TGI [6] greater than 100 µM. The TGI [7] was greater than 100 µM and the TGI [8] was greater than 100 µM.

`c1ccc2c(c1)CCc1c-2n(CCN2CCOCC2)c2ccccc12` was tested, and the TGI [1] was greater than 100 µM, the TGI [2] was greater than 100 µM and the TGI [3] was greater than 100 µM. It also gave a TGI [4] greater than 100 µM, a TGI [5] greater than 100 µM and a TGI [6] greater than 100 µM. The TGI [7] was greater than 100 µM and the TGI [8] was greater than 100 µM.

`c1cn(C23C4C5C6C4C2C6C53)cn1` (centres undefined) was tested, and the TGI [1] was greater than 100 µM, the TGI [2] was greater than 100 µM and the TGI [4] was greater than 100 µM. For the same molecule, the TGI [5] was greater than 100 µM, the TGI [6] was greater than 100 µM and the TGI [7] was greater than 100 µM.

`COc1ccc2nc3cc([N+](=O)[O-])ccc3c(Nc3ccc(S(=O)(=O)NC(C)=O)cc3)c2c1` gave a TGI [2] greater than 100 µM, a TGI [3] greater than 100 µM and a TGI [4] greater than 100 µM. It also gave a TGI [5] greater than 100 µM, a TGI [6] greater than 100 µM and a TGI [7] greater than 100 µM. The TGI [8] was greater than 100 µM.

`C[C@H]1C[C@H]2[C@@H]3C(C)(C)O[C@]4(O)C(=O)[C@]5(O)[C@@H](C)CC[C@H]1[C@]25C(=O)[C@]34C` gave a TGI [1] greater than 100 µM, a TGI [2] greater than 100 µM and a TGI [3] of 68.1 µM. The TGI [4] was greater than 100 µM, the TGI [6] was 70.9 µM and the TGI [7] was greater than 100 µM. It also gave a TGI [8] greater than 100 µM.

`Nc1ncnc2c1nnn2C1CCC(CP(=O)(O)O)C1` (centres undefined) gave a TGI [1] greater than 100 µM, a TGI [2] greater than 100 µM and a TGI [3] greater than 100 µM. For the same molecule, the TGI [4] was greater than 100 µM, the TGI [5] was greater than 100 µM and the TGI [6] was greater than 100 µM. It also gave a TGI [7] greater than 100 µM and a TGI [8] greater than 100 µM.

Work on `CSc1n[nH]c(N)c1C(=O)Nc1ccc(C)cc1` yielded a TGI [2] greater than 100 µM, a TGI [3] greater than 100 µM and a TGI [4] greater than 100 µM. It also gave a TGI [5] greater than 100 µM, a TGI [6] of 94.8 µM and a TGI [7] greater than 100 µM. The TGI [8] was greater than 100 µM.

Work on `C=C(C)C(O)C(O)c1c(OC)ccc2ccc(=O)oc12` (centres undefined) yielded a TGI [1] greater than 100 µM, a TGI [2] greater than 100 µM and a TGI [3] greater than 100 µM. The TGI [4] was greater than 100 µM, the TGI [5] was greater than 100 µM and the TGI [6] was greater than 100 µM. The TGI [7] was greater than 100 µM and the TGI [8] was greater than 100 µM.

With `OC(CCNCc1ccccc1)c1ccc2ccccc2c1` (centres undefined) the TGI [1] was 30.6 µM, the TGI [2] was 50.9 µM and the TGI [3] was 29.5 µM. The TGI [4] was 75.4 µM, the TGI [5] was 34 µM and the TGI [6] was 49.9 µM. It also gave a TGI [7] of 32.2 µM and a TGI [8] of 35.8 µM.

For `O=c1oc2ccccc2cc1-c1cn2cc(Cl)ccc2n1`, the TGI [1] was 17.7 µM, the TGI [2] was greater than 100 µM and the TGI [3] was 2.51 µM. The TGI [4] was 33.3 µM, the TGI [5] was 17.9 µM and the TGI [6] was greater than 54.9 µM. It also gave a TGI [7] greater than 45.9 µM and a TGI [8] of 0.898 µM.

Molecule `NNC(=O)Cn1c2ccc(Br)cc2c2nc3ccccc3nc21` has a TGI [1] greater than 100 µM, a TGI [2] greater than 100 µM and a TGI [3] greater than 100 µM. It also gave a TGI [4] greater than 100 µM, a TGI [5] greater than 100 µM and a TGI [6] greater than 100 µM. The TGI [7] was greater than 100 µM and the TGI [8] was greater than 100 µM.

Molecule `N#Cc1ccccc1-c1nc2c3c(c(N)ccc3n1)C(=O)c1ccccc1-2` has a TGI [1] greater than 100 µM, a TGI [2] greater than 100 µM and a TGI [3] greater than 100 µM. For the same molecule, the TGI [4] was greater than 100 µM, the TGI [5] was greater than 100 µM and the TGI [6] was greater than 100 µM. It also gave a TGI [7] greater than 100 µM and a TGI [8] greater than 100 µM.
